{"source": "patent US11814366B2", "about": "“Antiviral compounds and use thereof” (UNIVERSITA DEGLI STUDI DI SIENA, priority 2018, dated 2023)", "key": {"HSV-2 [1]": {"system": "HSV-2", "assay": "HSV-2 plaque reduction assay on Vero cells", "type": "cell-based, Herpes 2 virus (HSV-2)"}, "H1N1": {"system": "H1N1", "assay": "H1N1 inhibition assay on MDCK cells", "type": "cell-based, Influenza virus H1N1", "procedure": "MDCK cells were pre-plated in 96-well plates. The following day, concentrations of compounds ranging from 50 μM to 0.0001 μM in DMSO were mixed with H1N1 (MOI 0.05 pfu/cell) and incubated for 1 hour at 37° C. The mixtures were subsequently added to the cells for 1 h at 37° C., after a washout, cells were overlaid with MEM for 16 h at 37° C. Cells were then fixed and subjected to specific immunostaining using a Flu A monoclonal antibody (Merck 5001) in order to visualize infected cells. EC50 were calculated by comparing numbers of infected cells in treated and untreated wells. The effective concentration producing 50% reduction in plaque formation (EC50) was determined using Prism software. The selectivity index (SI) was calculated by dividing the CC50 by the EC50 value."}, "HSV-2 Acy R": {"system": "HSV-2 Acy R", "assay": "microbe, parasite or virus in culture", "type": "cell-based, HSV-2 acyclovir resistant", "settings": "Human alphaherpesvirus 2, Vero"}, "HCMV": {"system": "HCMV", "assay": "HCMV inhibition assay on HELF cells", "type": "cell-based, HCMV strain Towne", "settings": "Human betaherpesvirus 5, HELF", "procedure": "HELF cells were pre-plated in a 96-well plate. The following day concentrations of compounds ranging from 50 μM to 0.0001 μM in DMSO were mixed with HCMV (MOI 0.005 pfu/cell) and incubated for 1 hour at 37° C. The mixtures were subsequently added to the cells, which were then incubated at 37° C. for 3 h; monolayers were then washed and overlaid with 1.2% methylcellulose medium supplemented with 3% FCS and 1 mM sodium pyruvate. After five days incubation, cells were observed under an inverted Zeiss LSM510 fluorescence microscope (Zeiss, Oberkochen, Germany) and the EC50 were calculated by comparing GFP positive cells in treated and untreated wells. The effective concentration producing 50% reduction in plaque formation (EC50) was determined using Prism software. The selectivity index (SI) was calculated by dividing the CC50 by the EC50 value."}, "[2]": {"assay": "Cell viability (MTS) assay, HeLa cells", "type": "cell-based, human", "settings": "human, HeLa cells; conditions of the HPV-16 assay", "procedure": "(§1) Cell viability was measured using the MITS [3-(4,5-dimethylthiazol-2-yl)-5-(3 carboxy methoxy phenyl)-2-(4-sulfophenyl)-2H-tetrazolium] assay. Cell cultures were seeded in 96-well plates and were incubated with different concentrations of compounds of the invention in triplicate under the same experimental conditions described for the antiviral assays. Cell viability was determined using the CellTiter 96 Proliferation Assay Kit (Promega, Madison, WI, USA) according to the manufacturer's instructions. Absorbances were measured using a Microplate Reader (Model 680, BIORAD) at 490 nm. The effect on cell viability at different concentrations of the compound was expressed as a percentage, by comparing absorbances of treated cells with those of cells incubated with culture medium and equal volumes of vehicle. The 50% cytotoxic concentrations (CC50) and 95% confidence intervals (CIs) were determined using Prism software (Graph-Pad Software, San Diego, CA)."}, "HeLa cells": {"system": "HeLa cells", "assay": "Cell viability (MTS) assay, HeLa cells", "type": "cell-based, human", "settings": "conditions of the Ad5 assay", "procedure": "as §1"}, "[3]": {"assay": "Cell viability (MTS) assay, MA104 cells", "type": "cell-based", "settings": "African green monkey, conditions of the HRoV assay", "procedure": "as §1"}, "DENV-2": {"system": "DENV-2", "assay": "DENV plaque reduction assay on Huh-7 cells", "type": "cell-based, Dengue virus", "procedure": "The effect of compounds on DENV infection was evaluated by plaque reduction assay. Huh-7 cells were pre-plated 24 h in advance in 24-well plates at a density of 10^5 cells. Concentrations of compounds ranging from 50 μM to 0.0001 μM in DMSO were mixed with DENV-2 (MOI 0.01 pfu/cell) and incubated for 1 hour at 37° C. The mixtures were subsequently added to the cells, which were then incubated at 37° C. for 2 h. The virus inoculum was then removed and the cells washed and overlaid with a medium containing 1.2% methylcellulose (Sigma). After further incubation at 37° C. for 72 h cells were fixed and stained with 0.1% crystal violet in 20% ethanol and viral plaques counted. The effective concentration producing 50% reduction in plaque formation (EC50) were determined using Prism software by comparing drug-treated wells with wells treated with medium and DMSO. The selectivity index (SI) was calculated by dividing the CC50 by the EC50 value."}, "HSV-2 [4]": {"system": "HSV-2", "assay": "Pretreatment assay, Vero cells treated before HSV-2", "type": "cell-based, Herpes 2 virus (HSV-2)", "settings": "Vero cells pretreated 2 h at 37° C., then HSV-2", "procedure": "Vero Cells were pretreated for 2 h at 37° C. with increasing concentrations of compound 15b in DMSO the inocula were then removed cells washed and HSV-2 was added on cells for 2 h at 37° C. Subsequently the same protocol described above for the evaluation of HSV inhibition was followed."}, "HSV-2 [5]": {"system": "HSV-2", "assay": "Entry of virus into cell (ELISA, immunofluorescence)", "type": "cell-based, Herpes 2 virus (HSV-2)", "settings": "10 μM, HSV-2, Vero cells", "procedure": "Cells were plated in 96 well plates. The following day 10 μM of compound 15b in DMSO and HSV-2 (MOI 10 pfu/cell) were incubated for 1 h at 37° C. and subsequently added on cells for 1 hour at 4° C. Cells were then washed and shifted at 37° C. for 1 h and 30 minutes. Cells were then fixed with 4% paraformaldehyde, air dried and permeabilized with PBS-TRITON (0.5%) and then the same protocol described for binding was followed.\nVero cells were pre-plated on coverslips and the following day the binding or entry protocol described above was applied. Cells were then fixed with 4% paraformaldehyde, air dried and for entry protocol permeabilized with PBS-TRITON. Blocking was performed with PBS-BSA1% for 1 h at room temperature and subsequently HSV-2 polyclonal antibody (B011402-2 Dako) (1:250) was added on cells, after 1 hour at 37° C. the inoculum was removed and coverslips were washed with PBS-TWEEN for 3 times. Rhodamine conjugated anti-rabbit IgG (Santa Cruz) was then added on cells for 1 h at 37° C. following 3 washes coverslips were mounted on microscope glasses and observed with Zeiss LSM510 fluorescence microscope (Zeiss, Oberkochen, Germany) and images were acquired (FIG. 3A, 3B)."}, "HSV2": {"system": "HSV2", "assay": "Virucidal assay", "type": "cell-based, Herpes 2 virus (HSV-2)", "settings": "10 μM, 2 h at 37° C., titrated at dilutions where compound no more active", "procedure": "Approximately 10^5 PFU of HSV2 plus 10 μM of 15b in DMSO were added to MEM and mixed in a total volume of 100 μl. The virus-compound mixtures were incubated for 2 h at 37° C. then diluted serially to the non-inhibitory concentration of test compound; the residual viral infectivity was determined by viral plaque assay (FIG. 2)."}}, "note": "“Also recorded” adds a separate entry of the source.", "data": [{"smiles": "O=C1NC(=S)N(CCc2ccccc2)C(=O)/C1=C\\c1ccc(-c2ccc(C(=O)O)c(O)c2)[nH]1", "note": "[Compound 15b, (Z)-4-(5-((4,6-dioxo-1-phenethyl-2-thioxotetrahydropyrimidin-5(2H)-ylidene)methyl)-1H-pyrrol-2-yl)-2-hydroxybenzoic Acid]", "values": [{"measurement": "SI selectivity index", "setting": "HSV-2 [1]; HSV-2, CC50 divided by EC50", "value": ">3452"}, {"measurement": "EC90", "setting": "HSV-2 [1]; Human alphaherpesvirus 2, Vero, HSV-2 infected cells, 90% effective concentration", "value": 1190, "unit": "nM"}, {"measurement": "EC50", "setting": "HSV-2 [1]; Human alphaherpesvirus 2, Vero, HSV-2 infected cells, compound mixed with virus 1 hour at 37° C.", "value": 86.9, "unit": "nM"}, {"measurement": "SI selectivity index", "setting": "H1N1; H1N1, CC50 divided by EC50", "value": ">77"}, {"measurement": "EC50", "setting": "H1N1; Influenza A virus, H1N1, MDCK", "value": 1240, "unit": "nM"}, {"measurement": "EC90", "setting": "H1N1; Influenza A virus, H1N1, MDCK", "value": 3880, "unit": "nM"}, {"measurement": "EC50", "setting": "HSV-2 Acy R", "value": 83.4, "unit": "nM"}, {"measurement": "EC90", "setting": "HSV-2 Acy R", "value": 420, "unit": "nM"}, {"measurement": "EC50", "setting": "HCMV", "value": 118, "unit": "nM"}, {"measurement": "EC90", "setting": "HCMV", "value": 772, "unit": "nM"}, {"measurement": "CC50", "setting": "[2]", "value": "> 300000", "unit": "nM"}, {"measurement": "CC50", "setting": "HeLa cells", "value": "> 300000", "unit": "nM"}, {"measurement": "CC50", "setting": "[3]", "value": "> 300000", "unit": "nM"}, {"measurement": "SI selectivity index", "setting": "DENV-2; DENV-2, CC50 divided by EC50", "value": 5.6}, {"measurement": "EC50", "setting": "DENV-2; Dengue virus, DENV2, Huh-7, DENV-2 infected cells", "value": 1400, "unit": "nM"}, {"measurement": "antiviral activity in pre-treatment assay", "setting": "HSV-2 [4]", "value": "inactive"}, {"measurement": "percentage of internalized virus", "setting": "HSV-2 [5]", "value": "decreased; also recorded: lower"}, {"measurement": "residual viral infectivity after virucidal incubation", "setting": "HSV2", "value": "never regained"}]}]}
